# No end group written: not given here.
# Legend:
# brain tumor model = conditions: injected alone at the maximal tolerated dose (54 mg/kg); cited from earlier work
# [1] = system: in vitro model of the BBB (co-culture of bovine brain capillary endothelial cells and rat glial cells); test: First level screening: peptide passage in the in vitro BBB model, Coomassie blue detection; conditions: 90 minutes at 37° C.
# Source text: An in vitro model was used for screening assay and for mechanistic studies of drug transport to the brain. […] The model consists of a co-culture of bovine brain capillary endothelial cells and rat glial cells. It presents ultrastructural features characteristic of brain endothelium including tight junctions, lack of fenestration, lack of transendothelial channels, low permeability for hydrophilic molecules and a high electrical resistance.
# The in vitro model of BBB was established by using a co-culture of BBCECs and astrocytes. Prior to cell culture, plate inserts (Millicell-PC 3.0 μM; 30-mm diameter) were coated on the upper side with rat tail collagen. They were then set in six-well microplates containing the astrocytes and BBCECs were plated on the upper side of the filters in 2 mL of co-culture medium. This BBCEC medium was changed three times a week. Under these conditions, differentiated BBCECs formed a confluent monolayer 7 days later. Experiments were performed between 5 and 7 days after confluence was reached. The permeability coefficient for sucrose was measured to verify the endothelial permeability.
# Briefly, after removing the meninges, the brain tissue was forced gently through an 82 μm nylon sieve. Astrocytes were plated on six-well microplates at a concentration of 1.2×10^5 cells/mL in 2 mL of optimal culture medium (DMEM) supplemented with 10% heat inactivated fetal bovine serum. The medium was changed twice a week.
# Bovine brain capillary endothelial cells (BBCECs) were obtained from Cellial Technologies. The cells were cultured in the presence of DMEM medium supplemented with 10% (v/v) horse serum and 10% heat-inactivated calf serum, 2 mM of glutamine, 50 μg/mL of gentamycin, and 1 ng/mL of basic fibroblast growth factor, added every other day.
# Each peptide was added to the upper side of the inserts covered or non-covered with endothelial cells for 90 minutes at 37° C. […] After 90 minutes of transcytosis, a volume of 50 μl from the basolateral side of the filters covered with endothelial cells (+) or non-covered (−) was also loaded on Tricine gels. To visualize the peptides gels were stained with Coomassie blue.
# [2] = system: in vitro model of the BBB (bovine brain capillary endothelial cells); test: Second level screening: [125I]-peptide passage in the in vitro BBB model (cpm ratios); conditions: [125I]-peptide, cpm in bottom chamber / total cpm added, filter covered with endothelial cells, 90 minutes at 37° C.
# Protocol: This BBCEC medium was changed three times a week.
# The medium was changed twice a week.
# Briefly, the selected peptides were iodinated with standard procedures using iodo-beads from Sigma. Two iodo-beads were used for each protein. […] The iodination for each peptide was initiated by adding 100 μg (80-100 μl) of the bead suspension. […] Fractions of 0.5 ml were collected and the radioactivity in 5 μl of each fraction was measured.
# The iodinated peptides were also investigated with the in vitro model of the BBB. […] Results were expressed as cpm ratios.
# mouse brain = test: In situ cerebral perfusion with post-perfusion capillary depletion; format: in vivo, mice; conditions: perfusion 5 min
# Source text: The in situ cerebral perfusion (in mice) was used as the fourth level of selection to select the best peptides. This procedure also distinguishes between compounds remaining in the brain vascular compartment from those having crossed the abluminal endothelial membrane to enter the brain parenchyma. Indeed, the technique of post-perfusion capillary depletion allows to measure whether the molecule really crosses the endothelium to enter the brain parenchyma.
# [3] = system: in vitro BBB model (BBCEC monolayers grown on filters in the presence of astrocytes); test: Permeability coefficient (Pe) / transcytosis capacity in the in vitro BBB model; format: in vitro ADME, bovine; conditions: third level of selection, peptide at 250 nM
# Protocol: At different times, inserts were placed into another well.
# Transcytosis capacity of Aprotinin-Paclitaxel conjugate was determined and is reported below in Table 5.
Molecule,Mouse survival (brain tumor model),Peptide detected in the lower side of the chambers by Coomassie blue staining [1],Ratio +cells/initial [2],"Volume of distribution, Capillaries (mouse brain)","Volume of distribution, Capillaries % (mouse brain; share of homogenate)","Volume of distribution, Homogenate (mouse brain; total brain)",Permeability coefficient (Pe) [3]
CC(=O)O[C@H]1C(=O)[C@@]2(C)[C@H]([C@H](OC(=O)c3ccccc3)[C@]3(O)C[C@H](OC(=O)[C@H](O)[C@@H](NC(=O)c4ccccc4)c4ccccc4)C(C)=C1C3(C)C)[C@]1(OC(C)=O)CO[C@@H]1C[C@@H]2O [paclitaxel],unable to increase mouse survival,,,,,,
"TFFYGGCRAKRNNFKRAKY-NH2 [Peptide 5, T F F Y G G C R A K R N N F K R A K Y]",,detected in the lower side of the chambers,0.051,217 ml/100 g,73%,312 ml/100 g,highest Pe
